# Earlier results in US20180344690A1, “Methods and Formulation for Enhancing Response to Radiotherapy” (The Board of Trustees of the Leland Stanford Junior …, priority 2017, published 2018).
# How the values were obtained:
# APL = details: untreated control 18 days; cytarabine vs cytarabine+Plerixafor p<0.0006; cited from earlier work
# multiple myeloma (MM) = details: cited from earlier work
Structure (SMILES),median overall survival (APL),"tumor progression (multiple myeloma (MM); bortezomib vs control P=0.041, combination vs control P=0.001, vs bortezomib alone P=0.021)","tumor involvement in BM, liver and spleen (multiple myeloma (MM); mouse, in vivo)"
Nc1ccn([C@@H]2O[C@H](CO)[C@@H](O)[C@@H]2O)c(=O)n1 [cytarabine],23 days,,
CC(C)C[C@H](NC(=O)[C@H](Cc1ccccc1)NC(=O)c1cnccn1)B(O)O [bortezomib],,reduction in tumor progression compared with control,significant decrease of tumor cells
